Experimental data taken from patent US20060069132A1, “Azolecarboxamide herbicides” (priority 2004, published 2006).

Assays:
[1] = system: smallflower umbrella sedge; test: Test C flooded paddy test; format: in vivo, Cyperus difformis; conditions: for Plant response rating, Sedge, Umbrella: 500 g ai/ha, visual rating after 12 to 14 days
[2] = system: velvetleaf; test: Test B pre-/postemergence herbicide test; format: in vivo, Abutilon theophrasti
Procedure, shortened: (§1)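 Evaluation is visual, comparing treated with control plants on a scale where 0 means no effect and 100 means full control. Treatments were preemergence, or postemergence on seedlings 2–18 cm tall, and held 13–15 days in the greenhouse.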

[3] = system: cocklebur; test: Test B pre-/postemergence herbicide test; format: in vivo, Xanthium strumarium
Procedure, shortened: (§2)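 Species tested were Echinochloa crus-galli, Ipomoea coccinea, Xanthium strumarium and Oryza sativa, treated both before emergence and at the 1- to 4-leaf stage; rice and barnyardgrass were also tested under flooding at 2 leaves. Greenhouse incubation lasted 13–15 days before visual 0–100 scoring.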

[4] = system: lambsquarters; test: Test B pre-/postemergence herbicide test; format: in vivo, Chenopodium album
Procedure, shortened: as §1

[5] = system: barnyardgrass; test: Test B flooded paddy test; format: in vivo, Echinochloa crus-galli; conditions: 1000 g ai/ha, scale 0 to 100 (0 no effect, 100 complete control)
Procedure, shortened: (§3)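 Plants grow to 1- to 4-leaf stage (2–18 cm) for postemergence spraying, or to 2-leaf stage for the paddy test. Formulated compound is applied. Greenhouse holding lasts 13–15 days. Response is scored visually relative to controls, 0 no effect to 100 complete control; a dash means no result.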

[6] = system: barnyardgrass; test: Test B pre-/postemergence herbicide test; format: in vivo, Echinochloa crus-galli
Procedure, shortened: as §2

[7] = system: corn; test: Test B pre-/postemergence herbicide test; format: in vivo, Zea mays
Procedure, shortened: as §1

[8] = system: barnyardgrass; test: Test C flooded paddy test; format: in vivo, Echinochloa crus-galli; conditions: for Plant response rating, Barnyardgrass: 500 g ai/ha, visual rating after 12 to 14 days
Procedure, shortened: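 Visual rating, 0 (no effect) to 100 (complete control), vs. controls at 12–14 d in greenhouse. Postemergence: 1–4-leaf plants, 2–18 cm. Paddy: flooded, barnyardgrass at 2-leaf stage.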

[9] = system: wheat; test: Test B postemergence herbicide test; format: in vivo, Triticum aestivum; set-up: key to Wheat plant response rating: 0 = no effect, 100 = complete control
Procedure, shortened: as §3

[10] = system: rice; test: Test C flooded paddy test; format: in vivo, Oryza sativa; conditions: for Plant response rating, Rice: 500 g ai/ha, visual rating after 12 to 14 days
Procedure, shortened: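 Plants were grown to the 1- to 4-leaf stage (2–18 cm) and then treated postemergence, or grown to the 2-leaf stage for the flooded paddy test. They were held in a greenhouse for 12 to 14 days and then scored by eye against controls, where 0 is no effect and 100 is complete control.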

[11] = system: giant foxtail; test: Test B pre-/postemergence herbicide test; format: in vivo, Setaria faberi
Procedure, shortened: as §1

[12] = system: small flower umbrella sedge; test: Test B flooded paddy test; format: in vivo, Cyperus difformis; conditions: 1000 g ai/ha, scale 0 to 100 (0 no effect, 100 complete control)
Procedure, shortened: as §3

[13] = system: blackgrass; test: Test B postemergence herbicide test; format: in vivo, Alopecurus myosuroides
Procedure, shortened: as §3

[14] = system: ducksalad; test: Test B flooded paddy test; format: in vivo, Heteranthera limosa; conditions: 1000 g ai/ha, scale 0 to 100 (0 no effect, 100 complete control)
Procedure, shortened: as §3

[15] = system: ducksalad; test: Test C flooded paddy test; format: in vivo, Heteranthera limosa; conditions: for Plant response rating, Ducksalad: 500 g ai/ha, visual rating after 12 to 14 days
[16] = system: Surinam grass; test: Test B pre-/postemergence herbicide test; format: in vivo, Urochloa decumbens
Procedure, shortened: as §1

[17] = system: pigweed; test: Test B pre-/postemergence herbicide test; format: in vivo, Amaranthus retroflexus
Procedure, shortened: as §1

[18] = system: rice; test: Test B flooded paddy test; format: in vivo, Oryza sativa; conditions: 1000 g ai/ha, scale 0 to 100 (0 no effect, 100 complete control)
Procedure, shortened: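 Each value is a visual 0–100 response rating taken against controls 13 to 15 days after treatment in the greenhouse. Plants received formulated chemical postemergence at the 1- to 4-leaf stage or, in flooded paddy, at the 2-leaf stage.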

[19] = system: wild oat; test: Test B postemergence herbicide test; format: in vivo, Avena fatua
Procedure, shortened: as §3

[20] = system: large crabgrass; test: Test B pre-/postemergence herbicide test; format: in vivo, Digitaria sanguinalis
Procedure, shortened: as §1

[21] = system: morningglory; test: Test B pre-/postemergence herbicide test; format: in vivo, Ipomoea coccinea
Procedure, shortened: as §2

[22] = 62 g ai/ha, scale 0 to 100 (0 no effect, 100 complete control)
[23] = 125 g ai/ha, scale 0 to 100 (0 no effect, 100 complete control)
[24] = 250 g ai/ha, scale of 0 to 100, 0 is no effect, 100 is complete control
[25] = scale 0 to 100 (0 no effect, 100 complete control)
[26] = 500 g ai/ha; visual rating 0-100, 0 no effect, 100 complete control; preemergence
[27] = postemergence, 125 g ai/ha; visual rating, scale 0 (no effect) to 100 (complete control)
[28] = postemergence, 500 g ai/ha; visual rating, scale 0 (no effect) to 100 (complete control)
[29] = preemergence, 125 g ai/ha; 0 to 100 scale, 0 is no effect, 100 is complete control
[30] = 125 g ai/ha; 0 is no effect, 100 is complete control; preemergence
[31] = 125 g ai/ha; visual rating, scale 0 (no effect) to 100 (complete control); postemergence
[32] = postemergence, 500 g ai/ha; scale 0 to 100, 0 is no effect, 100 is complete control
[33] = 500 g ai/ha; visual rating, 0 = no effect, 100 = complete control; preemergence

## CC(=O)c1cccc(NC(=O)c2cc(C(C)(C)C)nn2CC(F)(F)F)c1 [Compound 126]
[1]; [22]
  Sedge, Umbrella plant response rating: 0
[1]; [23]
  Sedge, Umbrella plant response rating: 20
[1]; [24]
  Sedge, Umbrella plant response rating: 20
[1]; [25]
  Plant response rating, Sedge, Umbrella: 50
[2]; [26]
  Plant response rating, Velvetleaf: 20
[2]; [27]
  Velvetleaf plant response rating: 0
[2]; [28]
  Velvetleaf plant response rating: 40
[2]; [29]
  Plant response rating, Velvetleaf: 0
[3]; [26]
  Plant response rating, Cocklebur: 0
[3]; [27]
  Cocklebur plant response rating: 50
[3]; [28]
  Cocklebur plant response rating: 100
[3]; [29]
  Plant response rating, Cocklebur: 0
[4]; [26]
  Plant response rating, Lambsquarters: 90
[4]; [27]
  Lambsquarters plant response rating: 0
[4]; [28]
  Lambsquarters plant response rating: 60
[4]; [29]
  Plant response rating, Lambsquarters: 0
[5]; visual rating, 13 to 15 days
  Barnyardgrass plant response rating: 10
[6]; [26]
  Plant response rating, Barnyardgrass: 60
[6]; [27]
  Barnyardgrass plant response rating: 0
[6]; [28]
  Barnyardgrass plant response rating: 30
[6]; [29]
  Plant response rating, Barnyardgrass: 40
[7]; [26]
  Plant response rating, Corn: 0
[7]; [27]
  Corn plant response rating: 0
[7]; [28]
  Corn plant response rating: 20
[7]; [29]
  Plant response rating, Corn: 0
[8]; [22]
  Barnyardgrass plant response rating: 0
[8]; 125 g ai/ha, scale of 0 to 100, 0 is no effect, 100 is complete control
  Barnyardgrass plant response rating: 0
[8]; [24]
  Barnyardgrass plant response rating: 20
[8]; [25]
  Plant response rating, Barnyardgrass: 25
[9]; [27]
  Wheat plant response rating: 0
[9]; [28]
  Wheat plant response rating: 0
[10]; [22]
  Rice plant response rating: 0
[10]; [23]
  Rice plant response rating: 0
[10]; [24]
  Rice plant response rating: 0
[10]; [25]
  Plant response rating, Rice: 0
[11]; [26]
  Plant response rating, Foxtail, Giant: 0
[11]; [27]
  Foxtail, Giant plant response rating: 20
[11]; [28]
  Foxtail, Giant plant response rating: 30
[11]; [29]
  Plant response rating, Foxtail, Giant: 0
[12]; visual rating, 13 to 15 days
  Sedge, Umbrella plant response rating: 80
[13]; [27]
  Blackgrass plant response rating: 0
[13]; [28]
  Blackgrass plant response rating: 0
[14]; visual rating, 13 to 15 days
  Ducksalad plant response rating: 80
[15]; [22]
  Ducksalad plant response rating: 0
[15]; [23]
  Ducksalad plant response rating: 10
[15]; [24]
  Ducksalad plant response rating: 25
[15]; [25]
  Plant response rating, Ducksalad: 30
[16]; [26]
  Plant response rating, Surinam Grass: 20
[16]; [27]
  Surinam Grass plant response rating: 20
[16]; [28]
  Surinam Grass plant response rating: 20
[16]; [29]
  Plant response rating, Surinam Grass: 0
[17]; [26]
  Plant response rating, Pigweed: 70
[17]; [27]
  Pigweed plant response rating: 40
[17]; [28]
  Pigweed plant response rating: 40
[17]; [29]
  Plant response rating, Pigweed: 0
[18]; visual rating, 13 to 15 days
  Rice plant response rating: 20
[19]; [27]
  Oat, Wild plant response rating: 30
[19]; [28]
  Oat, Wild plant response rating: 50
[20]; [26]
  Plant response rating, Crabgrass, Large: 30
[20]; [27]
  Crabgrass, Large plant response rating: 40
[20]; [28]
  Crabgrass, Large plant response rating: 40
[20]; [29]
  Plant response rating, Crabgrass, Large: 0
[21]; [26]
  Plant response rating, Morningglory: 20
[21]; [27]
  Morningglory plant response rating: 0
[21]; [28]
  Morningglory plant response rating: 30
[21]; [29]
  Plant response rating, Morningglory: 0

## CCNC(=O)c1cccc(NC(=O)c2nn(C(C)C)nc2CC)c1 [Compound 357]
[1]; 62 g ai/ha, scale 0 to 100
  Sedge, Umbrella plant response rating: 40
[1]; [23]
  Sedge, Umbrella plant response rating: 85
[1]; [24]
  Sedge, Umbrella plant response rating: 90
[1]; [25]
  Plant response rating, Sedge, Umbrella: 95
[2]; [30]
  Plant response rating (0 to 100 scale), Velvetleaf: 0
[2]; [31]
  Velvetleaf plant response rating: 20
[2]; [32]
  Velvetleaf plant response rating: 20
[3]; [30]
  Plant response rating (0 to 100 scale), Cocklebur: 0
[3]; [31]
  Cocklebur plant response rating: 10
[3]; [33]
  Plant response rating, Cocklebur: 30
[3]; [32]
  Cocklebur plant response rating: 20
[4]; [30]
  Plant response rating (0 to 100 scale), Lambsquarters: 90
[4]; [31]
  Lambsquarters plant response rating: 30
[4]; [33]
  Plant response rating, Lambsquarters: 100
[4]; [32]
  Lambsquarters plant response rating: 60
[5]
  Barnyardgrass plant response rating: 70
[6]; [30]
  Plant response rating (0 to 100 scale), Barnyardgrass: 30
[6]; [31]
  Barnyardgrass plant response rating: 0
[6]; [33]
  Plant response rating, Barnyardgrass: 80
[6]; [32]
  Barnyardgrass plant response rating: 10
[7]; [30]
  Plant response rating (0 to 100 scale), Corn: 0
[7]; [31]
  Corn plant response rating: 0
[7]; [33]
  Plant response rating, Corn: 80
[7]; [32]
  Corn plant response rating: 20
[8]; [22]
  Barnyardgrass plant response rating: 0
[8]; [23]
  Barnyardgrass plant response rating: 0
[8]; [24]
  Barnyardgrass plant response rating: 30
[8]; [25]
  Plant response rating, Barnyardgrass: 55
[9]; [31]
  Wheat plant response rating: 0
[9]; [32]
  Wheat plant response rating: 0
[10]; 62 g ai/ha, scale 0 to 100
  Rice plant response rating: 0
[10]; [23]
  Rice plant response rating: 0
[10]; [24]
  Rice plant response rating: 45
[10]; [25]
  Plant response rating, Rice: 70
[11]; [30]
  Plant response rating (0 to 100 scale), Foxtail, Giant: 20
[11]; [31]
  Foxtail, Giant plant response rating: 30
[11]; [33]
  Plant response rating, Foxtail, Giant: 100
[11]; [32]
  Foxtail, Giant plant response rating: 40
[12]
  Sedge, Umbrella plant response rating: 80
[13]; [31]
  Blackgrass plant response rating: 0
[13]; [32]
  Blackgrass plant response rating: 30
[14]
  Ducksalad plant response rating: 80
[15]; 62 g ai/ha, scale 0 to 100
  Ducksalad plant response rating: 30
[15]; [23]
  Ducksalad plant response rating: 30
[15]; [24]
  Ducksalad plant response rating: 45
[15]; [25]
  Plant response rating, Ducksalad: 95
[16]; [30]
  Plant response rating (0 to 100 scale), Surinam Grass: 30
[16]; [31]
  Surinam Grass plant response rating: 10
[16]; [33]
  Plant response rating, Surinam Grass: 80
[16]; [32]
  Surinam Grass plant response rating: 20
[17]; [30]
  Plant response rating (0 to 100 scale), Pigweed: 100
[17]; [31]
  Pigweed plant response rating: 20
[17]; [33]
  Plant response rating, Pigweed: 100
[17]; [32]
  Pigweed plant response rating: 40
[18]
  Rice plant response rating: 70
[19]; [31]
  Oat, Wild plant response rating: 0
[19]; [32]
  Oat, Wild plant response rating: 30
[20]; [30]
  Plant response rating (0 to 100 scale), Crabgrass, Large: 70
[20]; [31]
  Crabgrass, Large plant response rating: 0
[20]; [33]
  Plant response rating, Crabgrass, Large: 100
[20]; [32]
  Crabgrass, Large plant response rating: 10
[21]; [30]
  Plant response rating (0 to 100 scale), Morningglory: 10
[21]; [31]
  Morningglory plant response rating: 10
[21]; [33]
  Plant response rating, Morningglory: 70
[21]; [32]
  Morningglory plant response rating: 30
